Measurements reported in patent US10351856B2, “Ribonucleic acid aptamer having inhibitory effect on non-small cell lung cancer and pharmaceutical composition comprising same” (BIOPHARMAGEN CORP., FANGZHOU SUZHOU, priority 2016, dated 2019).
“And” between values parts separate entries of the source, which are not always exact repeats. Equal entries are not always repeated. “Also recorded” adds a separate entry of the source.

Experiments:
[1] = tested on: human non-small cell lung cancer H460 transplanted tumor; test: RA16-EPI adduct or epirubicin on tumor growth in H460 subcutaneous tumor-bearing mice; format: in vivo; conditions: 3 times, day 16
Description: In order to clarify the effect of the nucleic acid aptamer RA16-EPI adduct on the growth of human non-small cell lung cancer solid tumors, the inventors used model mice that were injected with human non-small cell lung cancer H460 cells and constructed with a subcutaneous tumor as experimental subjects (initial mean tumor volume was 200-300 mm^3). They were randomly divided into 6 groups, each of which had 5 tumor-bearing mice. One group served as a negative control group (0.1 ml of normal saline was injected intravenously on the 0th, 7th, and 14th days respectively); and the other 5 groups served as treatment groups (different doses of drugs were given every week, and the administration manners and doses are shown in Table 2.). Every 2 days, the tumor diameter of the tumor-bearing mice was measured, the tumor volume was calculated, and the tumor growth curves were drawn (FIG. 5). On the 16th day, the tumor was extracted, the tumor was weighed, and the tumor growth inhibition rate was calculated.

[2] = tested on: human non-small cell lung cancer cell line H460; test: CCK-8 relative viability / proliferation of H460 cells; format: cell-based; conditions: for effect on proliferation of H460 cells: CCK-8, 48 h, 300 nM or 0-400 nM
Description: (§1) In order to clarify the effect of the nucleic acid aptamer RA16 on the proliferation of human non-small cell lung cancer cell lines, the inventors used the CCK-8 method (CCK-8 kit purchased from Dojindo Molecular Technologies, Inc.) to detect the relative viability of human non-small cell lung cancer cell line H460 (ATCC) and other tumor cells (human cervical cancer Hela cells) (the initial cell concentration was 2×10^4 cells/ml) after 48 h of treatment by 300 nM RA16. The same treatment was performed as the control with the same concentration of SCAP obtained by randomly shuffling the RA16.
(§2) Further, CCK-8 assay was used to detect the growth conditions of human non-small cell lung cancer H460 cells and human cervical cancer Hela cells (the concentration of test cells was about 2×10^4/ml) after 48 hours of treatment with different concentrations of nucleic acid aptamer RA16 and SCAP (concentration 0, 5, 10, 50, 100, 150, 200, 300, 400 nM respectively) with randomly srambled RA16, and after three independent experiments, the results are shown in FIG. 2A-B.
In order to clarify the effect of the nucleic acid aptamer RA16-EPI adduct on the proliferation of human non-small cell lung cancer cell lines, the inventors used the CCK-8 method to detect the relative viability of human non-small cell lung cancer cell line H460 and other tumor cell lines (human cervical cancer Hela cells) (initial cell concentration was 2×10^4 cells/ml) after 48 h of treatment by 375 nM RA16-EPI.

[3] = tested on: human cervical cancer Hela cells; test: CCK-8 relative viability / proliferation of Hela cells; format: cell-based; conditions: CCK-8, 48 h, 300 nM or 0-400 nM
Description: as §1
as §2, with “2A-B. […]” for “2A-B.”

[4] = tested on: human non-small cell lung cancer H460 transplanted tumor; test: RA16 on tumor growth in H460 subcutaneous tumor-bearing mice; format: in vivo; conditions: 2 nmol i.v. on days 0, 3, 5, 7, 9; tumor weighed on day 16
Description: In order to clarify the effect of the nucleic acid aptamer RA16 on the growth of human non-small cell lung cancer solid tumors, the inventors used model mice that were injected with human non-small cell lung cancer H460 cells and constructed with a subcutaneous tumor as experimental subjects (initial mean tumor volume was 100 mm^3 or so). They were randomly divided into two groups, each of which had 6 tumor-bearing mice. One group served as a negative control group (0.1 ml of normal saline was injected intravenously on the 0th, 3rd, 5th, 7th, and 9th days respectively); and the other was an RA16 treatment group (2 nmol of RA16 was injected intravenously the 0th, 3rd, 5th, 7th, and 9th days respectively). Every other day, the tumor diameter of the tumor-bearing mice was measured, the tumor volume was calculated, and the tumor growth curves were drawn (FIG. 4). On the 16th day, the tumor was extracted, the tumor was weighed, and the tumor growth inhibition rate was calculated.

[5] = high dose, EPI 1.5 mg/kg/week i.v.
[6] = low dose, EPI 0.5 mg/kg/week i.v.

Row | Molecule | Inhibition Rate (%) of tumor growth [1, 5] [%] | Tumor Weight [1, 5] [g] | Inhibition Rate (%) of tumor growth ([1]; high dose, EPI 1.5 mg/kg/week i.v., listed as EPI) [%] | Inhibition Rate (%) of tumor growth [1, 6] [%] | Tumor Weight [1, 6] [g] | effect on proliferation of H460 cells [2] | IC50 ([2]; CCK-8, 48 hours, 0-400 nM, read-out: IC50 of inhibition of proliferation of H460 cells) [nM] | effect on human cervical cancer Hela cells [3] | Inhibition Rate (%) of tumor growth [4]
1 | COc1cccc2c1C(=O)c1c(O)c3c(c(O)c1C2=O)C[C@@](O)(C(=O)CO)C[C@@H]3O[C@H]1C[C@H](N)[C@@H](O)[C@H](C)O1 [Epirubicin] | 47.13 | 1.97 ± 0.38 | 47.13 | 28.76 | 2.65 ± 0.21 |  |  |  | 
2 | RA16: ribonucleic acid aptamer of SEQ ID NO: 1, prepared by in vitro transcription, binds human non-small cell lung cancer (nucleic acid, listed as RNA, chemistry not fully specified) GGGAGAGAACAAUGACCUGCGGUGCCAAGCCGUCGGGUUAUGUUGAUCUCCACAAGGACGAGUGCAUUGCAUCACGUCAGUAG |  |  |  |  |  | obviously inhibit the proliferation | 117 | no inhibitory effect; also recorded: no obvious effects; also recorded: no significant effect | 54.3% and 54.26%
3 | SCAP: nucleic acid obtained by randomly shuffling the sequence of RA16, SEQ ID NO: 2, control (nucleic acid, listed as RNA, chemistry not given here) GGGAGAGAACAAUGACCUGUUGCAAGCGCGUCGGUAAUUCGCGCACAUGGCAGGCUUCUGAGUGCAUUGCAUCACGUCAGUAG |  |  |  |  |  | little effect |  |  | 
